# In US10800760B2, “Trk inhibition” (NantBio, Inc., priority 2017, dated 2020):
# Target: T1, TrkA(h) (Homo sapiens, UniProt P04629)
# T1 construct: purchased Millipore (KinaseProfiler Service)
# Assay: KinaseProfiler (Millipore) radiometric kinase assay, TrkA(h)
# Format: biochemical
# Details: compound concentration 1 μM
# Procedure: The KinaseProfiler™ Service Assay Protocols (Millipore) were used to test the kinase inhibiting activity of the novel compounds from this invention. To do this, the buffer composition was as follows: 20 mM MOPS, 1 mM EDTA, 0.01% Brij-35, 5% Glycerol, 0.1% β-mercaptoethanol, 1 mg/mL BSA. Test compounds were initially dissolved in DMSO at the desired concentration, then serially diluted into the kinase assay buffer. In a final reaction volume of 25 μL, TrkA(h) (5-10 mU) is incubated with 8 mM MOPS pH 7.0, 0.2 mM EDTA, 200 μM LRRASLG (Kemptide), 10 mM MgAcetate and [γ^33P-ATP]. The reaction was initiated by the addition of the MgATP mix. After incubation for 40 minutes at room temperature, the reaction was stopped by addition of 5 μL of a 3% phosphoric acid solution. 10 μL of the reaction was then spotted onto a P30 filtermat and washed three times for 5 minutes in 50 mM phosphoric acid and once in methanol prior to drying and scintillation counting. Wells containing substrate but no kinase and wells containing a phosphopeptide control were used to set 0% and 100% phosphorylation value, respectively.
# T1 sequence (P04629 33-796): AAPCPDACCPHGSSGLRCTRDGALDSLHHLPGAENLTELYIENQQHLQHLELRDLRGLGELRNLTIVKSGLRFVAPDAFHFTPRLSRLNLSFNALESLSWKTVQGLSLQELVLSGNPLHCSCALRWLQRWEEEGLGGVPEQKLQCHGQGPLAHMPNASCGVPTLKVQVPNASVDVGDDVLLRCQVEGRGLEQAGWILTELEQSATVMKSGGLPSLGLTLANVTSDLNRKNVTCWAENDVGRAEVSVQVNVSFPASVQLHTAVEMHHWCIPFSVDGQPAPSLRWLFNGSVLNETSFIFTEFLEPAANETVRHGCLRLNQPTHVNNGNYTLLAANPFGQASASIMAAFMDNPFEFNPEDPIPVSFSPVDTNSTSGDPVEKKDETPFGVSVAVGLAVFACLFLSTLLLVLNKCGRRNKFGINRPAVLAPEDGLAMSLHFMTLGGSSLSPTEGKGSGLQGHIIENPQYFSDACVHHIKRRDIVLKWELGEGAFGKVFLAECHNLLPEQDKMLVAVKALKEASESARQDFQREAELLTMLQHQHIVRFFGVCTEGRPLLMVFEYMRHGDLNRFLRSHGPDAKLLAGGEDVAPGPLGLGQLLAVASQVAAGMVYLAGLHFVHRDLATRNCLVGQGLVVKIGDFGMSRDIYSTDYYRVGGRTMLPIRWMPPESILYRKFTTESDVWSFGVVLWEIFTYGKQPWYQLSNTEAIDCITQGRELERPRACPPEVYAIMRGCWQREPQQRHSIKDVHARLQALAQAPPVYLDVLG
inhibition at 1 µM [%],% Inhibition@ 1 μM (TrkA(h)) [%],Structure (SMILES)
99,–,"C[C@H](Nc1cc(Nc2cc(C3CC3)[nH]n2)ncn1)c1ccc(F)cc1 [Example 23, (S)—N4-(5-cyclopropyl-1H-pyrazol-3-yl)-N6-(1-(4-fluorophenyl)ethyl)pyrimidine-4,6-diamine]"
31,–,Cc1c(Nc2cc(C3CC3)[nH]n2)ncnc1N[C@@H](C)c1ccc(F)cc1 [Example 24]
0,–,"COc1c(Nc2cc(C3CC3)[nH]n2)ncnc1N[C@@H](C)c1ccc(F)cc1 [Example 25, (S)—N4-(5-cyclopropyl-1H-pyrazol-3-yl)-N6-(1-(4-fluorophenyl)ethyl)-5-methoxypyrimidine-4,6-diamine]"
49,–,C[C@H](Nc1ncnc(Nc2cc(C3CC3)[nH]n2)c1C#N)c1ccc(F)cc1 [Example 26]
87,–,C[C@H](Nc1ncnc(Nc2cc(C3CC3)[nH]n2)c1F)c1ccc(F)cc1 [Example 27]
56,–,"C[C@H](Nc1ncnc(Nc2cc(C3CC3)[nH]n2)c1Cl)c1ccc(F)cc1 [Example 28, (S)-5-chloro-N4-(5-cyclopropyl-1H-pyrazol-3-yl)-N6-(1-(4-fluorophenyl)ethyl)pyrimidine-4,6-diamine]"
60,–,C[C@@H](Nc1cc(Nc2cc(C3CC3)[nH]n2)ncn1)c1ccc(F)cc1F [Example 33]
101,–,C[C@H](Nc1cc(Nc2cc(C3CC3)[nH]n2)ncn1)c1ccc(F)cc1F [Example 34]
99,–,CC(Nc1cc(Nc2cc(C3CC3)[nH]n2)ncn1)c1cc(F)ccc1F (stereo not drawn) [Example 35]
101,–,CC(Nc1cc(Nc2cc(C3CC3)[nH]n2)ncn1)c1ccc(F)cc1Cl (stereo not drawn) [Example 36]
97,–,CC(Nc1cc(Nc2cc(C3CC3)[nH]n2)ncn1)c1ccc(F)c(Cl)c1 (stereo not drawn) [Example 37]
101,–,OCC(Nc1cc(Nc2cc(C3CC3)[nH]n2)ncn1)c1ccc(F)cc1 (stereo not drawn) [Example 40]
100,–,C[C@H](Nc1cc(Nc2cc(C3CC3)[nH]n2)ncn1)c1ccc(F)cc1Cl [Example 54]
100,–,C[C@H](Nc1ncnc(Nc2cc(C3CC3)[nH]n2)n1)c1ccc(F)cc1Cl [Example 59]

# Further lines, the compound ahead of its results:
Structure (SMILES),inhibition at 1 µM [%],% Inhibition@ 1 μM (TrkA(h)) [%]
"CC(Nc1cc(Nc2cc(C3CC3)[nH]n2)ncn1)c1c(F)cccc1F (single isomer, unassigned) [Example 30]",100,–
CN1CCN(c2ccc(CNc3ncnc(Nc4cc(C5CC5)[nH]n4)c3C#N)cc2)CC1 [Example 29],-5,–
CC(Nc1cc(Nc2cc(C3CC3)n(C(=O)OC(C)(C)C)n2)ncn1)c1c(F)cccc1F (stereo not drawn) [Example 31],99,–
"CC(Nc1cc(Nc2cc(C3CC3)[nH]n2)ncn1)c1ccc(F)cc1F (stereo not drawn) [Example 32, N4-(5-cyclopropyl-1H-pyrazol-3-yl)-N6-(1-(2,4-difluorophenyl)ethyl)pyrimidine-4,6-diamine]",104,–
c1ccc(C(CN2CCOCC2)Nc2cc(Nc3cc(C4CC4)[nH]n3)ncn2)cc1 (stereo not drawn) [Example 38],71,–
CN1CCN(CC(Nc2cc(Nc3cc(C4CC4)[nH]n3)ncn2)c2ccccc2)CC1 (stereo not drawn) [Example 39],7,–
CC(c1cc(F)ccc1F)N(C)c1cc(Nc2cc(C3CC3)[nH]n2)ncn1 (stereo not drawn) [Example 42],95,–
"CC(Nc1cc(Nc2cc(C3CC3)[nH]n2)ncn1)c1ccc(F)cn1 (stereo not drawn) [Example 43, N4-(5-cyclopropyl-1H-pyrazol-3-yl)-N6-(1-(5-fluoropyridin-2-yl)ethyl)pyrimidine-4,6-diamine]",95,–
"CC(Nc1cc(Nc2cc(C3CC3)[nH]n2)ncn1)c1ccc(F)cn1 (stereo not drawn) [Example 44, N4-(5-cyclopropyl-1H-pyrazol-3-yl)-N6-(1-(5-fluoropyridin-2-yl)ethyl)pyrimidine-4,6-diamine]",–,98
"CC(Nc1cc(Nc2cc(C3CC3)[nH]n2)ncn1)c1ccc(F)cn1 (stereo not drawn) [Example 45, N4-(5-cyclopropyl-1H-pyrazol-3-yl)-N6-(1-(5-fluoropyridin-2-yl)ethyl)pyrimidine-4,6-diamine]",–,100
"CC(Nc1cc(Nc2cc(C3CC3)[nH]n2)ncn1)c1ccc(F)cn1 (stereo not drawn) [Example 46, N4-(5-cyclopropyl-1H-pyrazol-3-yl)-N6-(1-(5-fluoropyridin-2-yl)ethyl)pyrimidine-4,6-diamine]",–,98
CC(Nc1cc(Nc2cc(C3CC3)n(C)n2)ncn1)c1ccc(F)cc1F (stereo not drawn) [Example 47],25,–
CCn1nc(Nc2cc(NC(C)c3ccc(F)cc3F)ncn2)cc1C1CC1 (stereo not drawn) [Example 48],10,–
CC(Nc1cc(Nc2ccn(C3CCOCC3)n2)ncn1)c1ccc(F)cc1F (stereo not drawn) [Example 49],5,–
Cc1cc(Nc2cc(NC(C)c3ccc(F)cc3F)ncn2)n[nH]1 (stereo not drawn) [Example 50],99,–
CCCc1cc(Nc2cc(NC(C)c3ccc(F)cc3F)ncn2)n[nH]1 (stereo not drawn) [Example 51],100,–
"CC(Nc1cc(Nc2cc(C3CC3)[nH]n2)ncn1)c1ccc(F)cn1 (stereo not drawn) [Example 52, N4-(5-cyclopropyl-1H-pyrazol-3-yl)-N6-(1-(5-fluoropyridin-2-yl)ethyl)pyrimidine-4,6-diamine]",–,101
C[C@H](Nc1cc(Nc2cc(C3CC3)[nH]n2)nc(N)n1)c1ccc(F)cc1F [Example 53],100,–
COCC(Nc1cc(Nc2cc(C3CC3)[nH]n2)ncn1)c1ccccc1 (stereo not drawn) [Example 55],85,–
CN(C)CC(Nc1cc(Nc2cc(C3CC3)[nH]n2)ncn1)c1ccccc1 (stereo not drawn) [Example 56],67,–
"CC(Nc1cc(Nc2cc(C3CC3)[nH]n2)ncn1)c1ccc(F)cn1 (stereo not drawn) [Example 57, N4-(5-cyclopropyl-1H-pyrazol-3-yl)-N6-(1-(5-fluoropyridin-2-yl)ethyl)pyrimidine-4,6-diamine]",–,95
C[C@H](Nc1ncnc(Nc2cc(C3CC3)[nH]n2)n1)c1ccc(F)cc1F [Example 58],100,–
